Measurements taken from patent publication US8426447B2, “Spiro-tricyclic ring compounds as beta-secretase modulators and methods of use” (Amgen Inc., priority 2008, dated 2013).

Columns and labels:
BACE1 [1] = molecular target: T1, BACE1 (Homo sapiens, UniProt P56817); assay: In Vitro Enzymatic BACE FRET (Fluorescence Resonance Energy Transfer) Assay; format: biochemical; details: read-out: BACE1 FRET assay
In short: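 Cleavage of a 50 nM internally quenched peptide substrate is followed by fluorescence after a one-hour reaction in acidic acetate buffer, pH 4.2, terminated by Tris.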

BACE1 [2] = molecular target: T1, BACE1; assay: In Vitro BACE Cell-based Assay (HEK cell assay): Aβ40 in conditioned medium of cells stably expressing Amyloid Precursor Protein, sandwich ELISA; details: read-out: HEK cell assay
In short: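 HEK cells stably expressing APP were treated 24 h with compound in 10-point dose response starting at 100 or 10 μM (0.1% DMSO). Secreted Aβ40 quantified by sandwich ELISA (pAb40 capture, biotinylated 6E10 detection, europium time-resolved fluorescence), with IC50 derived from percent inhibition versus concentration.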

[3] = Table II, Aβ40, 24 h incubation
[4] = in vitro BACE FRET enzyme assay, IC50 class symbols
[5] = HEK cell-based assay, Aβ40 in conditioned medium, IC50 class symbols

T1 sequence (P56817 46-501, species assumed): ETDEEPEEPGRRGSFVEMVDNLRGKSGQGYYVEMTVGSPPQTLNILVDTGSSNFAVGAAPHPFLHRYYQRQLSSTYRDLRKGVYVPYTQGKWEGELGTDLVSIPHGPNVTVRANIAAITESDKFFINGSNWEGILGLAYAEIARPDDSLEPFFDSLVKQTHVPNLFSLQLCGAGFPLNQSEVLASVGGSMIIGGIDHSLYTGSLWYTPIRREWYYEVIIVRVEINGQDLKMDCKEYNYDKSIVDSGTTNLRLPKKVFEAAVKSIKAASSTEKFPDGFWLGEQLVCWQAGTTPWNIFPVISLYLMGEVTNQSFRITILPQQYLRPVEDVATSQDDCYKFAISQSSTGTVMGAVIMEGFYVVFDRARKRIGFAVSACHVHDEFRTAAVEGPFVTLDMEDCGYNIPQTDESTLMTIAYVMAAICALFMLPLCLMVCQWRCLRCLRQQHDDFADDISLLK

Structure (SMILES)	IC50 (BACE1 [1]; Table IV, class symbols) [µM]	IC50 (BACE1 [2]; Table IV, class symbols) [µM]	IC50 (BACE1 [1]) [µM]	other results
COc1cc(F)c2c(c1)[C@@]1(COC(N)=N1)c1cc(-c3cncnc3)cnc1O2 [compound 585]	> 5	> 5		
CC(C)(O)COc1ccc2c(c1)[C@]1(COC(N)=N1)c1cc(C#CC3CC3)ccc1O2 [compound 937]			< 0.1	IC50 (BACE1 [2]): 0.1 to 1 µM
CC(C)(O)C#Cc1cnc2c(c1)[C@@]1(COC(N)=N1)c1cc(-c3ccccc3)ccc1O2 [compound 709]			1 to 5	IC50 (BACE1 [2]): > 5 µM
CC(C)(C)OC(=O)/C=C/c1ccc2c(c1)[C@]1(COC(N)=N1)c1cc(-c3cccnc3)ccc1O2 [compound 995]			0.1 to 1	IC50 (BACE1 [2]): 1 to 5 µM
COc1ccc2c(c1)[C@]1(COC(N)=N1)c1cc(-c3cncnc3)cnc1O2 [Example 54, (5R)-7-methoxy-3-(5-pyrimidinyl)spiro[chromeno[2,3-b]pyridine-5,4′-[1,3]oxazol]-2′-amine]				IC50 (BACE1 [1]; Table II): 1 to 5 µM; IC50 (BACE1 [2]; [3]): > 5 µM
CC(C)(C)COc1ccc2c(c1)[C@]1(COC(N)=N1)c1cc(C(=O)NC3CC3)ccc1O2 [compound 798]	< 0.1	< 0.1		
NC1=N[C@@]2(CO1)c1cc(-c3cccnc3)ccc1Oc1cnc(N)cc12 [compound 446]			0.1 to 1	IC50 (BACE1 [2]; HEK cells): 0.1 to 1 µM
CC(C)(C)COc1ccc2c(c1)[C@]1(COC(N)=N1)c1cc(C(=O)NC3CCC3)ccc1O2 [compound 702]			< 0.1	IC50 (BACE1 [2]): 0.1 to 1 µM
CC(C)(C)COc1ccc2c(c1)[C@@]1(COC(N)=N1)c1cc(-c3cnc4ccccn34)ccc1O2 [compound 192]				IC50 (BACE1 [1]; Table III, IC50's in uM ranges): 1 to 5 µM; IC50 (BACE1 [2]; Table III, IC50's in uM ranges): > 5 µM
NC1=N[C@@]2(CO1)c1ccccc1Oc1ccc(-c3cncnc3)cc12 [compound 844]	0.1 to 1	0.1 to 1		
CC(C)(C)OC(=O)N1CC=C(c2ccc3c(c2)[C@]2(COC(N)=N2)c2cc(-c4cccnc4)ccc2O3)CC1 [compound 819]	< 0.1	0.1 to 1		
CC(C)(O)CCc1ccc2c(c1)[C@]1(COC(N)=N1)c1cc(-c3cccnc3)ccc1O2 [compound 193]				IC50 (BACE1 [1]; Table III, IC50's in uM ranges): < 0.1 µM; IC50 (BACE1 [2]; Table III, IC50's in uM ranges): < 0.1 µM
CC(C)(C)C#Cc1ccc2c(n1)[C@@]1(COC(N)=N1)c1cc(-c3cncnc3)ccc1O2 [compound 528]			< 0.1	IC50 (BACE1 [2]; HEK cells): < 0.1 µM
COC(=O)/C=C/c1ccc2c(c1)[C@@]1(COC(N)=N1)c1cc(-c3cncnc3)ccc1O2 [compound 946]			0.1 to 1	IC50 (BACE1 [2]): 0.1 to 1 µM
COC1CCN(c2ccc3c(c2)[C@]2(COC(N)=N2)c2cc(-c4cccnc4)ccc2O3)CC1 [compound 464]			< 0.1	IC50 (BACE1 [2]; HEK cells): < 0.1 µM
N#Cc1ccc(-c2cc3c(cn2)Oc2ccc(-c4cccnc4F)cc2[C@@]32COC(N)=N2)cc1 [compound 372]				IC50 (BACE1 [1]; [4]): < 0.1 µM; IC50 (BACE1 [2]; [5]): < 0.1 µM
NC1=N[C@@]2(CO1)c1cc(-c3cccnc3)ccc1Oc1ccc(-c3cscn3)cc12 [compound 671]			< 0.1	IC50 (BACE1 [2]): < 0.1 µM
NC1=N[C@]2(CO1)c1cc(OCC3CCOCC3)ccc1Oc1ccc(-c3cncnc3)cc12 [compound 175]				IC50 (BACE1 [1]; Table III, IC50's in uM ranges): < 0.1 µM; IC50 (BACE1 [2]; Table III, IC50's in uM ranges): < 0.1 µM
COc1ccc2c(c1)[C@]1(COC(N)=N1)c1cc(NC(=O)COc3ccccc3)ccc1O2 [compound 374]				IC50 (BACE1 [1]; [4]): 0.1 to 1 µM; IC50 (BACE1 [2]; [5]): 1 to 5 µM
CC(C)(C)COc1ccc2c(c1)[C@]1(COC(N)=N1)c1cc(C3=CCOCC3)ccc1O2 [compound 755]			0.1 to 1	IC50 (BACE1 [2]): 1 to 5 µM
CC(C)(C)COc1ccc2c(c1)[C@]1(COC(N)=N1)c1cc(C(=O)N3CCCC3)ccc1O2 [218b]				IC50 (BACE1 [1]; Table III, IC50's in uM ranges): 0.1 to 1 µM; IC50 (BACE1 [2]; Table III, IC50's in uM ranges): 0.1 to 1 µM
COc1ccc2c(c1)C1(COC(N)=N1)c1cc(-c3cccc(OC)c3F)ccc1O2 (stereo not drawn) [Example 17, 2′-(2-fluoro-3-methoxyphenyl)-7′-methoxyspiro[1,3-oxazole-4,9′-xanthen]-2-amine]				IC50 (BACE1 [1]; Table 1): 1 to 5 µM; IC50 (BACE1 [2]; Table 1, Aβ40, 24 h incubation): 1 to 5 µM
NC1=N[C@@]2(CO1)c1cc(-c3cncnc3)ccc1Oc1cnc(-c3ccccc3)cc12 [compound 546]	< 0.1	< 0.1		
NC1=N[C@]2(CO1)c1ccccc1Oc1ccc(-c3cncc4ccccc34)cc12 [compound 629]	1 to 5	> 5		
CC(=O)c1ccc(-c2ccc3c(c2)[C@]2(COC(N)=N2)c2cc(-c4cncnc4)ccc2O3)cc1 [compound 888]	< 0.1	< 0.1		
CC1(COc2cnc3c(c2)[C@]2(COC(N)=N2)c2cc(-c4ccccc4F)ccc2O3)COC1 [compound 458]			< 0.1	IC50 (BACE1 [2]; HEK cells): < 0.1 µM

Structure (SMILES)	IC50 (BACE1 [1]; Table IV, class symbols) [µM]	IC50 (BACE1 [2]; Table IV, class symbols) [µM]	IC50 (BACE1 [1]) [µM]	other results
CC(C)(C)OC(=O)Cc1ccc2c(c1)[C@@]1(COC(N)=N1)c1cc(Br)ccc1O2 [compound 858]	> 5	> 5		
CC1(C)C=C(c2cc3c(cn2)Oc2ccc(-c4cccnc4)cc2[C@@]32COC(N)=N2)CCO1 [compound 437, (5S)-3-(6,6-dimethyl-3,6-dihydro-2H-pyran-4-yl)-7-(3-pyridinyl)spiro[chromeno[2,3-c]pyridine-5,4′-[1,3]oxazol]-2′-amine]			< 0.1	IC50 (BACE1 [2]; HEK cells): < 0.1 µM
CC1(C)CN(c2cc(F)c3c(c2)[C@]2(COC(N)=N2)c2cc(-c4cccnc4)ccc2O3)CCO1 [compound 484]			< 0.1	IC50 (BACE1 [2]; HEK cells): < 0.1 µM
COc1cccc(-c2ccc3c(c2)C2(COC(N)=N2)c2ccc(C)cc2O3)c1F (stereo not drawn) [Example 30, 2′-(2-fluoro-3-methoxyphenyl)-6′-methylspiro[1,3-oxazole-4,9′-xanthen]-2-amine]				IC50 (BACE1 [1]; Table 1): > 5 µM; IC50 (BACE1 [2]; Table 1, Aβ40, 24 h incubation): > 5 µM
CC(C)(C)COc1ccc2c(n1)[C@@]1(COC(N)=N1)c1cc(-c3cncnc3)ccc1O2 [compound 732]			1 to 5	IC50 (BACE1 [2]): 1 to 5 µM
CC(C)(C)OC(=O)Cc1ccc2c(c1)[C@]1(COC(N)=N1)c1cc(-c3cncnc3)ccc1O2 [compound 765]			0.1 to 1	IC50 (BACE1 [2]): 0.1 to 1 µM
NC1=N[C@@]2(CO1)c1cc(C#CC3CC3)ccc1Oc1ncc(N3CCOCC3)cc12 [compound 607]	< 0.1	< 0.1		
Cc1noc(C)c1-c1ccc2c(c1)[C@@]1(COC(N)=N1)c1cc(OCC(C)(C)C)ccc1O2 [compound 976]			0.1 to 1	IC50 (BACE1 [2]): > 5 µM
CC(C)(C)COc1ccc2c(c1)[C@]1(COC(N)=N1)c1cc(-c3cccc4ncccc34)ccc1O2 [compound 916]	0.1 to 1	1 to 5		
CC(C)(O)C#Cc1ccc2c(c1)[C@]1(COC(N)=N1)c1cc(-c3cccnc3)ccc1O2 [151a]				IC50 (BACE1 [1]; Table III, IC50's in uM ranges): < 0.1 µM; IC50 (BACE1 [2]; Table III, IC50's in uM ranges): < 0.1 µM
NC1=N[C@]2(CO1)c1cc(OCC3CC3(F)F)ccc1Oc1ccc(-c3cncnc3)cc12 (stereo partly drawn) [Example 62, (4S)-2′-((2,2-difluorocyclopropyl)methoxy)-7′-(5-pyrimidinyl)spiro[1,3-oxazole-4,9′-xanthen]-2-amine]				IC50 (BACE1 [1]; Table II): < 0.1 µM; IC50 (BACE1 [2]; [3]): < 0.1 µM
COC1CN(c2cc(F)c3c(c2)[C@]2(COC(N)=N2)c2cc(-c4cccnc4)ccc2O3)C1 [compound 474]			< 0.1	IC50 (BACE1 [2]; HEK cells): < 0.1 µM
NC1=N[C@@]2(CO1)c1cc(Oc3ccccn3)ccc1Oc1ncc(Br)cc12 [compound 936]			> 5	IC50 (BACE1 [2]): > 5 µM
NC1=N[C@@]2(CO1)c1ccccc1Oc1ccc(-c3cc4ccccc4o3)cc12 [compound 587]	1 to 5	1 to 5		
CC(C)(C)COc1ccc2c(c1)[C@]1(COC(N)=N1)c1cc(C3=CCCCC3)ccc1O2 [compound 803]	< 0.1	1 to 5		
CC(C)(C)c1nc(-c2ccc3c(c2)[C@]2(COC(N)=N2)c2cc(-c4cccnc4)ccc2O3)cs1 [compound 622]	< 0.1	0.1 to 1		
NC1=N[C@]2(CO1)c1cc(OC3COC3)ccc1Oc1ccc(-c3cccnc3)cc12 [compound 777]			0.1 to 1	IC50 (BACE1 [2]): 0.1 to 1 µM
NC1=N[C@]2(CO1)c1cc(-c3cccc(OC(F)(F)F)c3)ccc1Oc1ncccc12 [compound 595]	0.1 to 1	1 to 5		
CC(C)(C)COc1ccc2c(c1)[C@]1(COC(N)=N1)c1cc(N3CCCCC3)ccc1O2 [compound 813]	0.1 to 1	0.1 to 1		
CC(C)(O)COc1ccc2c(c1)[C@]1(COC(N)=N1)c1cc(-c3cccnc3)ccc1O2 [Example 135, (S)-1-(2-amino-2′-(pyridin-3-yl)-5H-spiro[oxazole-4,9′-xanthene]-7′-yloxy)-2-methylpropan-2-ol]				IC50 (BACE1 [1]; Table III, IC50's in uM ranges): < 0.1 µM; IC50 (BACE1 [2]; Table III, IC50's in uM ranges): < 0.1 µM
CC(C)(C)C#Cc1ccc2c(c1)[C@]1(COC(N)=N1)c1cc(Oc3ccccn3)ccc1O2 [Example 112, (4R)-2′-(3,3-dimethyl-1-butyn-1-yl)-7′-(2-pyridinyloxy)spiro[1,3-oxazole-4,9′-xanthen]-2-amine]				IC50 (BACE1 [1]; Table III, IC50's in uM ranges): < 0.1 µM; IC50 (BACE1 [2]; Table III, IC50's in uM ranges): 0.1 to 1 µM
CC(C)(C)COc1ccc2c(c1)[C@@]1(COC(N)=N1)c1cc(C#N)ccc1O2 [compound 990]			0.1 to 1	IC50 (BACE1 [2]): 1 to 5 µM
NC1=N[C@]2(CO1)c1cc(C3=CCOCC3)ccc1Oc1cnc(-c3ccccc3F)cc12 [compound 498]			< 0.1	IC50 (BACE1 [2]; HEK cells): 0.1 to 1 µM
COc1cnc2c(c1)[C@@]1(COC(N)=N1)c1cc(Br)ccc1O2 [compound 543]	> 5	> 5		
NC1=N[C@@]2(CO1)c1cc(-c3ccc(F)nc3)ccc1Oc1cnc(C3=CCOCC3)cc12 [compound 431, (5S)-3-(3,6-dihydro-2H-pyran-4-yl)-7-(6-fluoro-3-pyridinyl)spiro[chromeno[2,3-c]pyridine-5,4′-[1,3]oxazol]-2′-amine]			< 0.1	IC50 (BACE1 [2]; HEK cells): < 0.1 µM
